target: T1, H3 receptor (Cavia porcellus, UniProt Q9JI35); test: H3 Receptor Binding Assay; parameters: species or system guinea pig; details: not given
T1 construct: The source of the H3 receptors in this experiment was guinea pig brain; from tissue; host or cells: guinea pig brain membranes
Procedure: The source of the H3 receptors in this experiment was guinea pig brain. The animals weighed 400-600 g. The brain tissue was homogenized using a Polytron in a solution of 50 mM Tris, pH 7.5. The final concentration of tissue in the homogenization buffer was 10% w/v. The homogenates were centrifuged at 1,000× g for 10 min. in order to remove clumps of tissue and debris. The resulting supernatants were then centrifuged at 50,000× g for 20 min. in order to sediment the membranes, which were next washed three times in homogenization buffer (50,000× g for 20 min. each). The membranes were frozen and stored at -70° C. until needed.
All compounds to be tested were dissolved in DMSO and then diluted into the binding buffer (50 mM Tris, pH 7.5) such that the final concentration was 2 μg/mL with 0.1% DMSO. Membranes were then added (400 μg of protein) to the reaction tubes. The reaction was started by the addition of 3 nM [^3 H]R-α-methylhistamine (8.8 Ci/mmol) or 3 nM [^3 H]N^α -methylhistamine (80 Ci/mmol) and continued under incubation at 30° C. for 30 min. Bound ligand was separated from unbound ligand by filtration, and the amount of radioactive ligand bound to the membranes was quantitated by liquid scintillation spectrometry. All incubations were performed in duplicate and the standard error was always less than 10%. Compounds that inhibited more than 70% of the specific binding of radioactive ligand to the receptor were serially diluted to determine a Ki (μM).

T1 sequence (Q9JI35 whole entry): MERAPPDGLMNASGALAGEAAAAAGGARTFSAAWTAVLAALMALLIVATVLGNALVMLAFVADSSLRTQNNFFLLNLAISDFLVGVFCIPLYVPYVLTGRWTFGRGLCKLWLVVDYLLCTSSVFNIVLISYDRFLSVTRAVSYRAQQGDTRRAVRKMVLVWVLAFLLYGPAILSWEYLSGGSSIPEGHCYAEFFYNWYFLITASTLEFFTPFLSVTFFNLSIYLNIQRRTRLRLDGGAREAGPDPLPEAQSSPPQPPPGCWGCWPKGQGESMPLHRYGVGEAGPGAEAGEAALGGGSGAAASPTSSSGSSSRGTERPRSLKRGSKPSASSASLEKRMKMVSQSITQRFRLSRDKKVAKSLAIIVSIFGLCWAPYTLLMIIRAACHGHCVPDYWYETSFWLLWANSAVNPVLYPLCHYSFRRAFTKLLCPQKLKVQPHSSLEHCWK

Question: With `N=C(NCc1ccc(Cl)cc1)c1ccc(Cc2c[nH]cn2)cc1` [Compound 6, N-[(4-Chlorophenyl)methyl]-4-[(1H-imidazol-4-yl)methyl]benzene methanimidamide] as the compound, how does the Ki read?
Answer: The Ki was 0.014 µM.

Question: For `NCc1ccc(Cc2c[nH]cn2)cc1` [Compound 21, 4-[(1H-Imidazol-4-yl)methyl]benzenemethanamine], which Ki is on record?
Answer: The Ki was 0.078 µM.

Question: Which Ki does the source give for `O=C(Nc1ccc(Cl)cc1)OCc1ccc(Cc2c[nH]cn2)cc1` [Compound 38, [4-(1H-Imidazol-4-ylmethyl)phenyl]methyl N-(4-chlorophenyl)carbamate] here?
Answer: Its Ki is 0.024 µM.

Question: Which Ki does the source give for `N=C(CCc1ccc(Cc2cnc[nH]2)cc1)NCc1ccc(Cl)cc1` [Compound 27, N-[(4-Chlorophenyl)methyl]-4-[(1H-imidazol-4-yl)methyl]benzene propanimidamide] here?
Answer: Its Ki is 0.18 µM.

Question: For `COc1ccc(C/N=C(\N)c2ccc(Cc3c[nH]cn3)cc2)cc1` [Compound 6a, N-[(4-Methoxyphenyl)methyl]-4-[(1H-imidazol-4-yl)methyl]benzene methanimidamide], which Ki is on record?
Answer: Its Ki is 0.56 µM.

same assay, conditions: guinea pig brain membranes; 3 nM [^3 H]R-α-methylhistamine or 3 nM [^3 H]N^α -methylhistamine; 30° C., 30 min, pH 7.5; read-out: Ki

Question: With `N=C(N)c1cccc(CCc2c[nH]cn2)c1` [Compound 16, 3-[(1H-Imidazol-4-yl)ethyl]benzene methanimidamide] as the compound, how does the Ki read?
Answer: Its Ki is 0.22 µM.

Question: With `N=C(N)c1cccc(Cc2c[nH]cn2)c1` [Compound 10, 3-[(1H-Imidazol-4-yl)methyl]benzene methanimidamide] as the compound, how does the Ki read?
Answer: The Ki was 0.31 µM.

Question: For `N=C(NCc1ccc(C(F)(F)F)cc1)c1ccc(Cc2c[nH]cn2)cc1` [Compound 6b, N-[(4-trifluoromethylphenyl)methyl]-4-[(1H-imidazol-4-yl)methyl]benzenemethanimidamide], which Ki is on record?
Answer: Its Ki is 0.14 µM.

Question: For `N=C(Cc1ccc(Cc2c[nH]cn2)cc1)NCc1ccc(Cl)cc1` [Compound 29, N-[(4-Chlorophenyl)methyl]-4-[(1H-imidazol-4-yl)methyl]benzene ethanimidamide], which Ki is on record?
Answer: Its Ki is 0.0072 µM.

Question: Which Ki does the source give for `N=C(N)c1ccc(Cc2c[nH]cn2)cc1` [Compound 9, 4-[(1H-Imidazol-4-yl)methyl]benzene methanimidamide] here?
Answer: The Ki was 0.038 µM.

Question: Which Ki does the source give for `N=C(NCCc1ccccc1)c1ccc(Cc2c[nH]cn2)cc1` [Compound 6d, N-(2-Phenylethyl)-4-[(1H-imidazol-4-yl)methyl]benzene methanimidamide] here?
Answer: Its Ki is 0.45 µM.

Question: Which Ki does the source give for `N=C(N)c1ccc(CCc2cnc[nH]2)cc1` [Compound 17, 4-[(1H-Imidazol-4-yl)ethyl]benzene methanimidamide] here?
Answer: Its Ki is 0.17 µM.

same assay, conditions: pH 7.5, read-out: Inhibition of binding of radioactive ligand, Inhibition (%) at 2 μg/ml

Question: Which inhibition at 2 µg/mL does the source give for `N=C(NCc1ccncc1)c1ccc(Cc2c[nH]cn2)cc1` [Compound 6c, N-[(4-Pyridyl)methyl]-4-[(1H-imidazol-4-yl)methyl]benzene methanimidamide] here?
Answer: The inhibition at 2 µg/mL was 48%.

Question: For `O=C(NCc1ccc(Cl)cc1)c1ccc(Cc2c[nH]cn2)cc1` [Compound 33, N-[(4-Chlorophenyl)methyl]-4-(1H-imidazol-4-ylmethyl)benzamide], which inhibition at 2 µg/mL is on record?
Answer: The inhibition at 2 µg/mL was 61%.

Question: With `Clc1ccc(COCc2ccc(Cc3c[nH]cn3)cc2)cc1` [Compound 36, 4-[[4-[[(4-Chlorophenyl)methoxy]methyl]phenyl]methyl]-1H-imidazole] as the compound, how does the inhibition at 2 µg/mL read?
Answer: Its inhibition at 2 µg/mL is 6 to 87%.

Question: Which inhibition at 2 µg/mL does the source give for `O=C(OCc1ccc(Cc2c[nH]cn2)cc1)c1ccc(Cl)cc1` [Compound 40, [4-(1H-Imidazol-4-ylmethyl)phenyl]methyl 4-chlorobenzoate] here?
Answer: The inhibition at 2 µg/mL was 10%.

Question: With `O=C(OCc1ccc(Cl)cc1)c1ccc(Cc2c[nH]cn2)cc1` [Compound 43, (4-Chlorophenyl)methyl 4-(1H-imidazol-4-ylmethyl)benzoate] as the compound, how does the inhibition at 2 µg/mL read?
Answer: The inhibition at 2 µg/mL was 16 to 78%.

test system: histamine H3 receptor; test: not given; details: mice, electrically induced convulsions; cited from earlier work

Question: With `S=C(NC1CCCCC1)N1CCC(c2cnc[nH]2)CC1` [thioperamide] as the compound, how does the “duration of each phase of convulsion” value read?
Answer: Its value is “decreased the duration of each phase of convulsion”.

same assay, conditions: mice; cited from earlier work

Question: Which electroconvulsive threshold does the source give for `S=C(NC1CCCCC1)N1CCC(c2cnc[nH]2)CC1` [thioperamide] here?
Answer: Its electroconvulsive threshold is “raised the electroconvulsive threshold”.

test system: H3 receptors; test: not given; details: rat; cited from earlier work

Question: With `S=C(NC1CCCCC1)N1CCC(c2cnc[nH]2)CC1` [thioperamide] as the compound, how does the “short-term memory and reversal learning” value read?
Answer: Its value is “can improve short-term memory and reversal learning”.

Source: patent US5578616A, “Phenyl-alkyl-imidazoles” (Schering Corporation, priority 1995, dated 1996)
